Measurements published in patent publication US20230085307A1, “PYRIDAZINONE COMPOUND AND HERBICIDE” (NISSAN CHEMICAL CORPORATION, priority 2019, published 2023).

Tests used:
[1] = tested on: chickweed; experiment: Test Example 4: herbicidal effect by soil treatment (Table 19, symbol P); assay type: in vivo, common chickweed (Stellaria media); settings: amount of applied herbicide 320 g/ha
Outline: (§1)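 Emulsion of test compound, water-diluted to predetermined amount, sprayed on soil after sowing (seed depth ~1.5 cm, sterilized diluvial soil). Greenhouse, 25–30° C. Effect graded at three weeks post-spray.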

[2] = tested on: blackgrass; experiment: Test Example 5: herbicidal effect by foliage application, plastic box (Table 20, symbol J); assay type: in vivo, blackgrass (Alopecurus myosuroides); settings: amount of applied herbicide 320 g/ha; foliage application after 14-day growth; evaluated three weeks after application
Outline: (§2)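 Post-emergence foliar test in sterilized diluvial soil. Compound applied as water-diluted emulsion at a predetermined rate to 14-day-old plants; evaluation at three weeks.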

[3] = tested on: green foxtail; experiment: Test Example 5: herbicidal effect by foliage application, plastic box (Table 20, symbol G); assay type: in vivo, green foxtail (Setaria viridis); settings: amount of applied herbicide 320 g/ha; foliage application after 14-day growth; evaluated three weeks after application
Outline: as §2

[4] = tested on: late watergrass; experiment: Test Example 1: herbicidal activity, application before weed generation under submerged conditions (Table 16, symbol A); assay type: in vivo, late watergrass (Echinochloa oryzicola); settings: amount of applied herbicide 320 g/ha
Outline: (§3)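 Emulsion formulation, water-diluted to set dose, was put onto the flooded surface (4 cm depth, alluvial soil) the same day weeds were sown and 2.5-leaf rice transplanted. After 3 weeks at 25-30 °C under glass, each species was rated 0 (≤5% kill) to 5 (≥90% kill).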

[5] = tested on: Japanese bulrush; experiment: Test Example 1: herbicidal activity, application before weed generation under submerged conditions (Table 16, symbol B); assay type: in vivo, Japanese bulrush (Schoenoplectus juncoides); settings: amount of applied herbicide 320 g/ha
Outline: as §3

[6] = tested on: barnyard grass; experiment: Test Example 5: herbicidal effect by foliage application, plastic box (Table 20, symbol H); assay type: in vivo, barnyard grass (Echinochloa crus-galli); settings: amount of applied herbicide 320 g/ha; foliage application after 14-day growth; evaluated three weeks after application
Outline: as §2

[7] = tested on: windgrass; experiment: Test Example 4: herbicidal effect by soil treatment (Table 19, symbol L); assay type: in vivo, windgrass (Apera spica-venti); settings: amount of applied herbicide 320 g/ha
Outline: as §1

[8] = tested on: chickweed; experiment: Test Example 5: herbicidal effect by foliage application, plastic box (Table 20, symbol P); assay type: in vivo, common chickweed (Stellaria media); settings: amount of applied herbicide 320 g/ha; foliage application after 14-day growth; evaluated three weeks after application
Outline: as §2

[9] = tested on: southern crabgrass; experiment: Test Example 5: herbicidal effect by foliage application, plastic box (Table 20, symbol F); assay type: in vivo, southern crabgrass (Digitaria ciliaris); settings: amount of applied herbicide 320 g/ha; foliage application after 14-day growth; evaluated three weeks after application
Outline: as §2

[10] = tested on: blackgrass; experiment: Test Example 4: herbicidal effect by soil treatment (Table 19, symbol J); assay type: in vivo, blackgrass (Alopecurus myosuroides); settings: amount of applied herbicide 320 g/ha
Outline: as §1

[11] = tested on: redroot pigweed; experiment: Test Example 4: herbicidal effect by soil treatment (Table 19, symbol N); assay type: in vivo, redroot pigweed (Amaranthus retroflexus); settings: amount of applied herbicide 320 g/ha
Outline: as §1

[12] = tested on: oval-leafed pondweed; experiment: Test Example 1: herbicidal activity, application before weed generation under submerged conditions (Table 16, symbol C); assay type: in vivo, oval-leafed pondweed (Monochoria vaginalis); settings: amount of applied herbicide 320 g/ha
Outline: as §3

[13] = tested on: barnyard grass; experiment: Test Example 3: herbicidal effect by foliage application, Wagner pot (Table 18, symbol H); assay type: in vivo, barnyard grass (Echinochloa crus-galli); settings: 320 g/ha
Outline: (§4)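 Plants were sown in alluvial soil held under 0.1–0.5 cm standing water and grown 14 days in a greenhouse at 25–30 °C. An emulsifiable formulation, water-diluted to the set dose, was then sprayed onto the foliage, and effects were scored three weeks later using previously defined criteria.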

[14] = tested on: Italian ryegrass; experiment: Test Example 4: herbicidal effect by soil treatment (Table 19, symbol K); assay type: in vivo, Italian ryegrass (Lolium multiflorum); settings: amount of applied herbicide 320 g/ha
Outline: as §1

[15] = tested on: southern crabgrass; experiment: Test Example 4: herbicidal effect by soil treatment (Table 19, symbol F); assay type: in vivo, southern crabgrass (Digitaria ciliaris); settings: amount of applied herbicide 320 g/ha
Outline: as §1

[16] = tested on: velvetleaf; experiment: Test Example 5: herbicidal effect by foliage application, plastic box (Table 20, symbol M); assay type: in vivo, velvetleaf (Abutilon theophrasti); settings: amount of applied herbicide 320 g/ha; foliage application after 14-day growth; evaluated three weeks after application
Outline: as §2

[17] = tested on: green foxtail; experiment: Test Example 4: herbicidal effect by soil treatment (Table 19, symbol G); assay type: in vivo, green foxtail (Setaria viridis); settings: amount of applied herbicide 320 g/ha
Outline: as §1

[18] = tested on: lambsquarters; experiment: Test Example 5: herbicidal effect by foliage application, plastic box (Table 20, symbol O); assay type: in vivo, lambsquarters (Chenopodium album); settings: amount of applied herbicide 320 g/ha; foliage application after 14-day growth; evaluated three weeks after application
Outline: as §2

[19] = tested on: persian speedwell; experiment: Test Example 5: herbicidal effect by foliage application, plastic box (Table 20, symbol R); assay type: in vivo, Persian speedwell (Veronica persica); settings: amount of applied herbicide 320 g/ha; foliage application after 14-day growth; evaluated three weeks after application
Outline: as §2

[20] = tested on: redroot pigweed; experiment: Test Example 5: herbicidal effect by foliage application, plastic box (Table 20, symbol N); assay type: in vivo, redroot pigweed (Amaranthus retroflexus); settings: amount of applied herbicide 320 g/ha; foliage application after 14-day growth; evaluated three weeks after application
Outline: as §2

[21] = tested on: lambsquarters; experiment: Test Example 4: herbicidal effect by soil treatment (Table 19, symbol O); assay type: in vivo, lambsquarters (Chenopodium album); settings: amount of applied herbicide 320 g/ha
Outline: as §1

[22] = tested on: persian speedwell; experiment: Test Example 4: herbicidal effect by soil treatment (Table 19, symbol R); assay type: in vivo, Persian speedwell (Veronica persica); settings: amount of applied herbicide 320 g/ha
Outline: as §1

[23] = tested on: rice flat sedge; experiment: Test Example 3: herbicidal effect by foliage application, Wagner pot (Table 18, symbol E); assay type: in vivo, rice flat sedge (Cyperus iria); settings: 320 g/ha
Outline: as §4

[24] = tested on: Italian ryegrass; experiment: Test Example 5: herbicidal effect by foliage application, plastic box (Table 20, symbol K); assay type: in vivo, Italian ryegrass (Lolium multiflorum); settings: amount of applied herbicide 320 g/ha; foliage application after 14-day growth; evaluated three weeks after application
Outline: as §2

[25] = tested on: velvetleaf; experiment: Test Example 4: herbicidal effect by soil treatment (Table 19, symbol M); assay type: in vivo, velvetleaf (Abutilon theophrasti); settings: amount of applied herbicide 320 g/ha
Outline: as §1

[26] = tested on: barnyard grass; experiment: Test Example 4: herbicidal effect by soil treatment (Table 19, symbol H); assay type: in vivo, barnyard grass (Echinochloa crus-galli); settings: amount of applied herbicide 320 g/ha
Outline: as §1

[27] = tested on: Chinese sprangletop; experiment: Test Example 3: herbicidal effect by foliage application, Wagner pot (Table 18, symbol D); assay type: in vivo, chinese sprangletop (Leptochloa chinensis); settings: 320 g/ha
Outline: as §4

[28] = tested on: wild oat; experiment: Test Example 4: herbicidal effect by soil treatment (Table 19, symbol I); assay type: in vivo, wild oat (Avena fatua); settings: amount of applied herbicide 320 g/ha
Outline: as §1

[29] = tested on: wild oat; experiment: Test Example 5: herbicidal effect by foliage application, plastic box (Table 20, symbol I); assay type: in vivo, wild oat (Avena fatua); settings: amount of applied herbicide 320 g/ha; foliage application after 14-day growth; evaluated three weeks after application
Outline: as §2

[30] = tested on: windgrass; experiment: Test Example 5: herbicidal effect by foliage application, plastic box (Table 20, symbol L); assay type: in vivo, windgrass (Apera spica-venti); settings: amount of applied herbicide 320 g/ha; foliage application after 14-day growth; evaluated three weeks after application
Outline: as §2

Cc1nn(C)c(=O)c(-c2c(-c3ccccc3OC(C)C)sc3cc(F)c(F)cc23)c1O [5-018]
P: chickweed, herbicidal effect grade [1]: 4 (Herbicidal rate of 70% or more and less than 90%)
Herbicidal effect by foliage application, J: blackgrass [2]: 1 (Herbicidal rate of 5% or more and less than 20%)
Herbicidal effect by foliage application, G: green foxtail [3]: 2 (Herbicidal rate of 20% or more and less than 40%)
Herbicidal effect, A: late watergrass [4]: 0 (Herbicidal rate of 5% or less (almost no effect))
Herbicidal effect, B: Japanese bulrush [5]: 5 (Herbicidal rate of 90% or more (almost completely withered))
Herbicidal effect by foliage application, H: barnyard grass [6]: 0 (Herbicidal rate of 5% or less (almost no effect))
L: windgrass, herbicidal effect grade [7]: 0 (Herbicidal rate of 5% or less (almost no effect))
Herbicidal effect by foliage application, P: chickweed [8]: 5 (Herbicidal rate of 90% or more (almost completely withered))
Herbicidal effect by foliage application, F: southern crabgrass [9]: 0 (Herbicidal rate of 5% or less (almost no effect))
J: blackgrass, herbicidal effect grade [10]: 0 (Herbicidal rate of 5% or less (almost no effect))
N: redroot pigweed, herbicidal effect grade [11]: 2 (Herbicidal rate of 20% or more and less than 40%)
Herbicidal effect, C: oval-leafed pondweed [12]: 5 (Herbicidal rate of 90% or more (almost completely withered))
herbicidal effect on barnyard grass (H) [13]: 4 (Herbicidal rate of 70% or more and less than 90%)
K: Italian ryegrass, herbicidal effect grade [14]: 0 (Herbicidal rate of 5% or less (almost no effect))
F: southern crabgrass, herbicidal effect grade [15]: 0 (Herbicidal rate of 5% or less (almost no effect))
Herbicidal effect by foliage application, M: velvetleaf [16]: 4 (Herbicidal rate of 70% or more and less than 90%)
G: green foxtail, herbicidal effect grade [17]: 3 (Herbicidal rate of 40% or more and less than 70%)
Herbicidal effect by foliage application, O: lambsquarters [18]: 0 (Herbicidal rate of 5% or less (almost no effect))
Herbicidal effect by foliage application, R: persian speedwell [19]: 5 (Herbicidal rate of 90% or more (almost completely withered))
Herbicidal effect by foliage application, N: redroot pigweed [20]: 1 (Herbicidal rate of 5% or more and less than 20%)
O: lambsquarters, herbicidal effect grade [21]: 1 (Herbicidal rate of 5% or more and less than 20%)
R: persian speedwell, herbicidal effect grade [22]: 3 (Herbicidal rate of 40% or more and less than 70%)
herbicidal effect on rice flat sedge (E) [23]: 3 (Herbicidal rate of 40% or more and less than 70%)
Herbicidal effect by foliage application, K: Italian ryegrass [24]: 0 (Herbicidal rate of 5% or less (almost no effect))
M: velvetleaf, herbicidal effect grade [25]: 0 (Herbicidal rate of 5% or less (almost no effect))
H: barnyard grass, herbicidal effect grade [26]: 2 (Herbicidal rate of 20% or more and less than 40%)
herbicidal effect on Chinese sprangletop (D) [27]: 0 (Herbicidal rate of 5% or less (almost no effect))
I: wild oat, herbicidal effect grade [28]: 0 (Herbicidal rate of 5% or less (almost no effect))
Herbicidal effect by foliage application, I: wild oat [29]: 0 (Herbicidal rate of 5% or less (almost no effect))
Herbicidal effect by foliage application, L: windgrass [30]: 0 (Herbicidal rate of 5% or less (almost no effect))

CCCC(=O)Oc1c(C)nn(C)c(=O)c1-c1c(-c2ccc(OC(C)C)cc2)sc2cc(F)c(F)cc12 [5-020]
P: chickweed, herbicidal effect grade [1]: 0 (Herbicidal rate of 5% or less (almost no effect))
Herbicidal effect by foliage application, J: blackgrass [2]: 0 (Herbicidal rate of 5% or less (almost no effect))
Herbicidal effect by foliage application, G: green foxtail [3]: 0 (Herbicidal rate of 5% or less (almost no effect))
Herbicidal effect, A: late watergrass [4]: 3 (Herbicidal rate of 40% or more and less than 70%)
Herbicidal effect, B: Japanese bulrush [5]: 0 (Herbicidal rate of 5% or less (almost no effect))
Herbicidal effect by foliage application, H: barnyard grass [6]: 1 (Herbicidal rate of 5% or more and less than 20%)
L: windgrass, herbicidal effect grade [7]: 0 (Herbicidal rate of 5% or less (almost no effect))
Herbicidal effect by foliage application, P: chickweed [8]: 4 (Herbicidal rate of 70% or more and less than 90%)
Herbicidal effect by foliage application, F: southern crabgrass [9]: 0 (Herbicidal rate of 5% or less (almost no effect))
J: blackgrass, herbicidal effect grade [10]: 0 (Herbicidal rate of 5% or less (almost no effect))
N: redroot pigweed, herbicidal effect grade [11]: 3 (Herbicidal rate of 40% or more and less than 70%)
Herbicidal effect, C: oval-leafed pondweed [12]: 0 (Herbicidal rate of 5% or less (almost no effect))
herbicidal effect on barnyard grass (H) [13]: 3 (Herbicidal rate of 40% or more and less than 70%)
K: Italian ryegrass, herbicidal effect grade [14]: 0 (Herbicidal rate of 5% or less (almost no effect))
F: southern crabgrass, herbicidal effect grade [15]: 0 (Herbicidal rate of 5% or less (almost no effect))
Herbicidal effect by foliage application, M: velvetleaf [16]: 2 (Herbicidal rate of 20% or more and less than 40%)
G: green foxtail, herbicidal effect grade [17]: 0 (Herbicidal rate of 5% or less (almost no effect))
Herbicidal effect by foliage application, O: lambsquarters [18]: 3 (Herbicidal rate of 40% or more and less than 70%)
Herbicidal effect by foliage application, R: persian speedwell [19]: 5 (Herbicidal rate of 90% or more (almost completely withered))
Herbicidal effect by foliage application, N: redroot pigweed [20]: 4 (Herbicidal rate of 70% or more and less than 90%)
O: lambsquarters, herbicidal effect grade [21]: 0 (Herbicidal rate of 5% or less (almost no effect))
R: persian speedwell, herbicidal effect grade [22]: 3 (Herbicidal rate of 40% or more and less than 70%)
herbicidal effect on rice flat sedge (E) [23]: 0 (Herbicidal rate of 5% or less (almost no effect))
Herbicidal effect by foliage application, K: Italian ryegrass [24]: 0 (Herbicidal rate of 5% or less (almost no effect))
M: velvetleaf, herbicidal effect grade [25]: 0 (Herbicidal rate of 5% or less (almost no effect))
H: barnyard grass, herbicidal effect grade [26]: 0 (Herbicidal rate of 5% or less (almost no effect))
herbicidal effect on Chinese sprangletop (D) [27]: 0 (Herbicidal rate of 5% or less (almost no effect))
I: wild oat, herbicidal effect grade [28]: 0 (Herbicidal rate of 5% or less (almost no effect))
Herbicidal effect by foliage application, I: wild oat [29]: 0 (Herbicidal rate of 5% or less (almost no effect))
Herbicidal effect by foliage application, L: windgrass [30]: 0 (Herbicidal rate of 5% or less (almost no effect))
